# What was measured:
# Format in all cases: cell-based
# [1] = molecular target: T1, CHRM2 (Homo sapiens, UniProt P08172); test: Agonist-induced exocytosis of granzyme B, sandwich ELISA (Example 9); conditions: agonist 10 uM, 60 minutes
# T1 construct: the entire human GPCR; mouse immunoglobulin kappa signal peptide (N); expressed in transfected cells
# T1 sequence (P08172 2-466): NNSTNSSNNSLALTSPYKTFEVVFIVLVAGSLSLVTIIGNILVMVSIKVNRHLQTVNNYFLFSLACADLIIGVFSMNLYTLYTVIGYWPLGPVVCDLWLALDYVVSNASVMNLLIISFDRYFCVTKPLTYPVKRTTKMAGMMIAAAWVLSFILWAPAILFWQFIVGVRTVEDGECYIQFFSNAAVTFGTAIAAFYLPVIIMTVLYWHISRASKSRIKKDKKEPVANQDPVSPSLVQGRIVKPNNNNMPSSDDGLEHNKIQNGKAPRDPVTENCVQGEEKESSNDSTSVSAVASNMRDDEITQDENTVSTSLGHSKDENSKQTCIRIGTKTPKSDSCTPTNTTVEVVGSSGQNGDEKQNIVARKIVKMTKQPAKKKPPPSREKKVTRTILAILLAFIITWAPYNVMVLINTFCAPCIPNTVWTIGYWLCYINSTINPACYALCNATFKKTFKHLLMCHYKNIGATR
# From the text: Human granzyme B was selected as reporter, chimeric promoter of hCMV-MoLV5′LTR as promoter for reporter expression, RBL-2H3 as hemopoyetic cells with professional regulated exocytosis and several GPCRs as exocytosis modulators under the control of Moloney Leukaemia virus 5′-LTR (MoMLV5′LTR, SEQ ID NO:3) as promoter for expression of exocytosis modulators. […] Vectors for expression of granzyme B had the chimeric promoter of hCMV-MoLV5′LTR-GranzymeB-IRES-NGFR with hygromycin resistance for stable transfections. Vectors for GPCR were electroporated first, cells were selected with neomycin at 500 ug/mL for about two weeks and cells were analysed by flow cytometry (Guava Technologies, USA) with anti-cmyc tag antibody (anti-cmyc-FITC, clone 9E10, Sigma-Aldrich, USA) for surface expression. Positive cells were separated by magnetic separation using anti-cmyc monoclonal antibody conjugated to biotin (Miltenyi Biotec, Germany) and streptavidin-MACS (Miltenyi Biotec, Germany). After growing positive fraction of cells was again analysed by flow cytometry with the anti-cmyc tag antibody. Positive cells were individually electroporated with the vector for expression human granzyme B using a microporator (Digital Bio Technology, South Korea) and after 48 hours hygromycin at 1500 ug/mL and neomycin at 500 ug/mL were added to culture for selection. After selection for about 2 weeks cells were analysed by flow cytometry (Guava Technologies, USA) with an antibody against NGFR coupled to FITC. Positive population where magnetically separated by MACS using anti-NGFR-MACS sup.R (Miltenyi Biotec, Germany). Sorted populations were again analysed again by flow cytometry to check both the expression of the GPCR with the anti-cmyc tag antibody and with anti-NGFR antibody to check granzyme B expression. […] GPCRs included were: SSTR2 and CHRM2 as alpha-i coupled GPCRs; AGTR1 and bradykinin type B1 receptor (BDKRB1) as alpha-q coupled GPCRs and AVPR2 as alpha-s coupled GPCR. […] Cells were seeded the night before experiment at 100.000 cells per well of a 96-well microplate in 100 uL of complete cell culture medium. Next day cells were washed with HBSS buffer and incubated with the ligand (agonist) at 10 uM of each GPCR in 30 uL of HBSS buffer at 37 Celsius degrees for 60 minutes and after centrifugation at 400 g for 5 minutes supernatants were analysed for human granzyme B protein by a sandwich ELISA specific for human granzyme B (Ucytech, Netherlands).
# [2] = molecular target: T1, CHRM2; test: Number of steps needed, 384 well mix and read assay (Example 13); conditions: carbachol 10 uM, 5.000 cells, only 15 uL of medium aspirated, 30 minutes
# From the text: This experiment was designed to test how many steps are needed for an assay with the cell based sensor, in particular if a washing step is needed before assay. As the RBL-2H3 is an adherent cell line at least one step of aspiration of cell culture medium is needed. If all cell culture medium is aspirated then cells should become dry and eventually die in particular if there is a time interval between aspiration and addition of compounds to test for exocytosis. For this reason an additional treatment was included were not all cell culture medium is aspirated. But if not all the cell culture medium is aspirated then some of the reporter secreted by cells after overnight culture contributes to basal exocytosis. CHRM2 and granzyme B expressing cells from example #12 were used in this experiment but cells were seeded 16 hours before experiment at 5.000 cells per well of a 384 well plate with black walls in 20 uL of culture medium. Before experiment three treatments were made: (1) discarding all the 20 uL of medium without washing; (2) discarding only 15 uL of cell culture medium and (3) discarding only 15 uL of cell culture medium and washing of the cells using 75 uL of Hanks Balanced Salt Solution (HBSS) containing 0.1% BSA and aspiration of 75 uL of washing buffer. […] Plates were incubated at 37° C. in the fluorescence reader and read at 0, 15, 30, 45 and 60 minutes. […]
# [3] = molecular target: T1, CHRM2; test: Multiplex assay, Sensor B channel (CHRM2 and granzyme B) (Example 14); conditions: granzyme B substrate 1 uM
# From the text: The principle of multiplex reactions is illustrated in FIG. 5. RBL2H3 cells were stably transfected with a pair of a GPCR as exocytosis modulator and a granzyme as a granule stored reporter as described in example 9. Combinations included were: hIL8 receptor (hIL8RA) and human granzyme A (Sensor A) and CHRM2 and granzyme B expressing cells of example #12 (Sensor B). Human IL8 was used as agonist of hll_8R while carbachol was used as CHRM2 agonist. […] As both substrates uses the same pair of fluorophore (FAM) and quencher (TAMRA) only one substrate could be added to reaction vessel for specific detection at 535 nm after excitation at 485 nm. […] Sensors, agonists and substrates were mixed in a total volume of 20 uL of HBSS in a black walled 384 well microplate and the microplate was incubated at 37 Celsius degrees in a BMG-Labtech microplate fluorimeter and read at 0, 15, 30, 45 and 60 minutes.
smiles,measurement,setting,value
"C[N+](C)(C)CCOC(N)=O [Carbachol, carbachol]",Absorbance at maximal dilution of ELISA tested,"[1]; 100.000 cells, dilution 2250, after subtraction of 0.2 blank",0.6
same,Sensitivity (minimal amount of cells needed),[1]; granzyme B ELISA,<150 cells
same,signal to background,[2],8-10
same,Signal to background at 30 min,"[3]; Condition 7: 5000 cells Sensor B, carbachol 10 uM",20
same,Signal to background at 30 min,"[3]; Condition 10: Sensor A 12500 + Sensor B 5000 cells, IL8 10 uM + carbachol 10 uM",20
